The supplement of paper PMC12698765
Where a name gives a salt, the structure may show the parent alone. ± gives the standard deviation of the averaged measurements.

How the values were obtained:
[1] = tested on: 409B2 hiPSC (iCRISPR Cas9, FRMD7 editing); experiment: HDR (precise edit) frequency relative to solvent control (fold (ratio to mock)); higher = more homology-directed repair outcomes
Procedure: (§1)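 Subset screen of 55 drugs tested at 5 concentrations around the effective screening dose, in 409B2 iCRISPR Cas9 hiPSCs editing FRMD7 with a ssDNA donor. Drugs were applied for 24 h. Viability was read by resazurin and editing outcomes by amplicon sequencing (HDR, NHEJ <2 bp microhomology, MMEJ ≥2 bp microhomology). Values are relative to solvent mock controls; two biological replicates.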

[2] = tested on: 409B2 hiPSC (iCRISPR Cas9, FRMD7 editing); experiment: NHEJ-attributed indel frequency relative to solvent control (fold (ratio to mock)); higher = more NHEJ outcomes
Procedure: as §1

[3] = tested on: 409B2 hiPSC (iCRISPR Cas9, FRMD7 editing); experiment: cell survival relative to solvent control (fold (ratio to mock)); higher = more surviving cells
Procedure: as §1

[4] = tested on: 409B2 hiPSC (iCRISPR Cas9, FRMD7 editing); experiment: MMEJ-attributed deletion frequency relative to solvent control (fold (ratio to mock)); higher = more MMEJ outcomes
Procedure: as §1

SMILES | HDR ([1]; 20 nM) | HDR ([1]; 50 nM) | HDR ([1]; 100 nM) | HDR ([1]; 200 nM) | HDR ([1]; 500 nM) | NHEJ-attributed indel frequency ([2]; 20 nM) | NHEJ-attributed indel frequency ([2]; 50 nM) | NHEJ-attributed indel frequency ([2]; 100 nM) | NHEJ-attributed indel frequency ([2]; 200 nM) | NHEJ-attributed indel frequency ([2]; 500 nM) | cell survival ([3]; 20 nM) | cell survival ([3]; 50 nM) | cell survival ([3]; 100 nM) | cell survival ([3]; 200 nM) | cell survival ([3]; 500 nM) | MMEJ-attributed deletion frequency ([4]; 20 nM) | MMEJ-attributed deletion frequency ([4]; 50 nM) | MMEJ-attributed deletion frequency ([4]; 100 nM) | MMEJ-attributed deletion frequency ([4]; 200 nM) | MMEJ-attributed deletion frequency ([4]; 500 nM) | also measured
CC[C@@]1(O)C(=O)OCc2c1cc1n(c2=O)Cc2cc3cc(O)ccc3nc2-1 [10-Hydroxycamptothecin] (in DMSO) | 0.141 ± 0.075 | 0.115 ± 0.032 | 0.106 ± 0.03 | 0.0697 ± 0.015 | 0.109 ± 0.033 | 0.393 ± 0.053 | 0.378 ± 0.0062 | 0.333 ± 0.045 | 0.267 ± 0.025 | 0.208 ± 0.021 | 0.0133 | -0.00908 | -0.00864 | -0.0102 | -0.000182 | 0.686 ± 0.039 | 0.286 ± 0.059 | 0.389 ± 0.0056 | 0.546 ± 0.05 | 0.474 ± 0.22 | –
CC[C@]1(O)C[C@@H]2CN(CCc3c([nH]c4ccccc34)[C@@](C(=O)OC)(c3cc4c(cc3OC)N(C)[C@H]3[C@@](O)(C(=O)OC)[C@H](OC(C)=O)[C@]5(CC)C=CCN6CC[C@]43[C@@H]65)C2)C1 [Vinblastine sulfate] (in DMSO) | 0.511 ± 0.28 | 0.302 ± 0.056 | – | – | – | 0.606 ± 0.21 | 0.498 ± 0.064 | – | – | – | 0.00294 | 0.00452 | – | – | – | 0.779 ± 0.3 | 0.6333 ± 0.0063 | – | – | – | HDR ([1]; 2 nM): 1.08 ± 0.098; HDR ([1]; 5 nM): 0.737 ± 0.042; HDR ([1]; 10 nM): 0.633 ± 0.4; NHEJ-attributed indel frequency ([2]; 2 nM): 1.04 ± 0.018; NHEJ-attributed indel frequency ([2]; 5 nM): 0.958 ± 0.12; NHEJ-attributed indel frequency ([2]; 10 nM): 0.792 ± 0.39; cell survival ([3]; 2 nM): 0.687; cell survival ([3]; 5 nM): 0.117; cell survival ([3]; 10 nM): 0.0623; MMEJ-attributed deletion frequency ([4]; 2 nM): 1.11 ± 0.049; MMEJ-attributed deletion frequency ([4]; 5 nM): 1.08 ± 0.057; MMEJ-attributed deletion frequency ([4]; 10 nM): 1.13 ± 0.55
C1CCN2C[C@@H]3C[C@@H](CN4CCCC[C@@H]34)[C@H]2C1 [Sparteine] (in DMSO) | 1.11 ± 0.044 | 1.001 ± 0.0048 | 1.05 ± 0.061 | 1.04 ± 0.051 | 1.02 ± 0.15 | 0.9845 ± 0.0022 | 0.98809 ± 0.00026 | 1.01 ± 0.011 | 0.9919 ± 0.0066 | 0.988 ± 0.035 | 0.978 | 1.24 | 1 | 1.05 | 1.26 | 0.908 ± 0.028 | 0.866 ± 0.061 | 0.957 ± 0.098 | 1.03 ± 0.086 | 0.9904 ± 0.0051 | –
CSCCC(N)C(=O)O (racemic) [DL-Methionine] (in H2O) | 1.001 ± 0.0057 | 0.932 ± 0.021 | 0.943 ± 0.051 | 0.937 ± 0.044 | 0.917 ± 0.011 | 1.01 ± 0.025 | 1.038 ± 0.0021 | 1.04 ± 0.0044 | 1.03 ± 0.011 | 1.02 ± 0.016 | 0.974 | 0.972 | 0.891 | 0.957 | 0.861 | 0.912 ± 0.069 | 0.924 ± 0.017 | 0.802 ± 0.018 | 0.877 ± 0.13 | 0.912 ± 0.042 | –
Cc1ccc(C(=O)N(CCCN)[C@@H](c2nc3cc(Cl)ccc3c(=O)n2Cc2ccccc2)C(C)C)cc1 (in DMSO) | – | – | – | – | – | – | – | – | – | – | – | – | – | – | – | – | – | – | – | – | HDR ([1]; 0.2 nM): 1.1 ± 0.075; HDR ([1]; 0.5 nM): 1.0454 ± 2.1e-05; HDR ([1]; 1 nM): 1.08 ± 0.032; HDR ([1]; 2 nM): 1.03 ± 0.032; HDR ([1]; 5 nM): 1.18 ± 0.095; NHEJ-attributed indel frequency ([2]; 0.2 nM): 0.957 ± 0.046; NHEJ-attributed indel frequency ([2]; 0.5 nM): 0.989 ± 0.019; NHEJ-attributed indel frequency ([2]; 1 nM): 0.9925 ± 0.0038; NHEJ-attributed indel frequency ([2]; 2 nM): 1.012 ± 0.0086; NHEJ-attributed indel frequency ([2]; 5 nM): 1.07 ± 0.041; cell survival ([3]; 0.2 nM): 1.07; cell survival ([3]; 0.5 nM): 1.34; cell survival ([3]; 1 nM): 1.15; cell survival ([3]; 2 nM): 1.2; cell survival ([3]; 5 nM): 0.682; MMEJ-attributed deletion frequency ([4]; 0.2 nM): 1.01 ± 0.086; MMEJ-attributed deletion frequency ([4]; 0.5 nM): 0.901 ± 0.032; MMEJ-attributed deletion frequency ([4]; 1 nM): 1.01 ± 0.076; MMEJ-attributed deletion frequency ([4]; 2 nM): 0.864 ± 0.08; MMEJ-attributed deletion frequency ([4]; 5 nM): 0.961 ± 0.13
Nc1ccn([C@@H]2O[C@H](CO)[C@@H](O)[C@@H]2O)c(=O)n1 [Cytarabine hydrochloride] (in DMSO) | 0.71 ± 0.068 | 0.699 ± 0.1 | 0.625 ± 0.018 | 0.652 ± 0.11 | 0.554 ± 0.099 | 1.02 ± 0.026 | 1.05 ± 0.022 | 1.03 ± 0.0015 | 1.01 ± 0.039 | 1.04 ± 0.04 | 1.01 | 0.968 | 0.672 | 0.467 | 0.161 | 0.911 ± 0.12 | 0.897 ± 0.049 | 1.1 ± 0.021 | 1.08 ± 0.13 | 1.04 ± 0.18 | –
Nc1ccn(C[C@@H](CO)OCP(=O)(O)O)c(=O)n1 [Cidofovir] (in H2O) | – | – | – | – | – | – | – | – | – | – | – | – | – | – | – | – | – | – | – | – | HDR ([1]; 2000 nM): 1.06 ± 0.083; HDR ([1]; 5000 nM): 0.9 ± 0.055; HDR ([1]; 10000 nM): 0.85 ± 0.081; HDR ([1]; 20000 nM): 0.574 ± 0.012; HDR ([1]; 50000 nM): 1.01; NHEJ-attributed indel frequency ([2]; 2000 nM): 0.843 ± 0.058; NHEJ-attributed indel frequency ([2]; 5000 nM): 0.835 ± 0.019; NHEJ-attributed indel frequency ([2]; 10000 nM): 0.862 ± 0.049; NHEJ-attributed indel frequency ([2]; 20000 nM): 0.736 ± 0.051; NHEJ-attributed indel frequency ([2]; 50000 nM): 0.988; cell survival ([3]; 2000 nM): 0.624; cell survival ([3]; 5000 nM): 0.548; cell survival ([3]; 10000 nM): 0.333; cell survival ([3]; 20000 nM): 0.167; cell survival ([3]; 50000 nM): 0.863; MMEJ-attributed deletion frequency ([4]; 2000 nM): 0.789 ± 0.08; MMEJ-attributed deletion frequency ([4]; 5000 nM): 0.881 ± 0.029; MMEJ-attributed deletion frequency ([4]; 10000 nM): 0.924 ± 0.35; MMEJ-attributed deletion frequency ([4]; 20000 nM): 0.727 ± 0.12; MMEJ-attributed deletion frequency ([4]; 50000 nM): 0.968
N=C(NCCCCCCNC(=N)NC(=N)Nc1ccc(Cl)cc1)NC(=N)Nc1ccc(Cl)cc1 [Chlorhexidine HCl] (in DMSO) | – | – | – | 1.06 ± 0.051 | 1.09 ± 0.038 | – | – | – | 0.973 ± 0.014 | 0.995 ± 0.021 | – | – | – | 1.04 | 1.24 | – | – | – | 0.966 ± 0.067 | 0.8989 ± 0.0017 | HDR ([1]; 1000 nM): 1 ± 0.044; HDR ([1]; 2000 nM): 0.874 ± 0.023; HDR ([1]; 5000 nM): 0.294 ± 0.063; NHEJ-attributed indel frequency ([2]; 1000 nM): 0.997 ± 0.011; NHEJ-attributed indel frequency ([2]; 2000 nM): 1.05 ± 0.043; NHEJ-attributed indel frequency ([2]; 5000 nM): 0.6546 ± 0.0051; cell survival ([3]; 1000 nM): 1.02; cell survival ([3]; 2000 nM): 1.03; cell survival ([3]; 5000 nM): 0.0831; MMEJ-attributed deletion frequency ([4]; 1000 nM): 0.994 ± 0.067; MMEJ-attributed deletion frequency ([4]; 2000 nM): 1.07 ± 0.082; MMEJ-attributed deletion frequency ([4]; 5000 nM): 0.946 ± 0.12
CC(O)C(=O)O (stereo not given) [lactate] (in H2O) | – | – | – | 1.02 ± 0.065 | 0.941 ± 0.056 | – | – | – | 0.984 ± 0.021 | 1.02 ± 0.028 | – | – | – | 1.15 | 1.08 | – | – | – | 1.01 ± 0.044 | 0.849 ± 0.074 | HDR ([1]; 1000 nM): 0.946 ± 0.091; HDR ([1]; 2000 nM): 1.01 ± 0.1; HDR ([1]; 5000 nM): 1.005 ± 0.0083; NHEJ-attributed indel frequency ([2]; 1000 nM): 1.04 ± 0.03; NHEJ-attributed indel frequency ([2]; 2000 nM): 0.998 ± 0.047; NHEJ-attributed indel frequency ([2]; 5000 nM): 1 ± 0.013; cell survival ([3]; 1000 nM): 0.963; cell survival ([3]; 2000 nM): 1.06; cell survival ([3]; 5000 nM): 1.15; MMEJ-attributed deletion frequency ([4]; 1000 nM): 0.952 ± 0.094; MMEJ-attributed deletion frequency ([4]; 2000 nM): 1.05 ± 0.096; MMEJ-attributed deletion frequency ([4]; 5000 nM): 1 ± 0.094
